In US20260209203A1, “Heterocyclic Compounds as Modulators of S1P5” (Celgene Corporation, priority 2022, published 2026) one finds EC50 data, which are given here for 25 compounds.

Molecules are shown by their SMILES.

In the assay the target is S1P5 (Homo sapiens, UniProt Q9H228). In words: [35S]-GTPγS functional binding assay on CHO-S1P5 membranes. The class given is biochemical. To be noted: membranes of CHO cells expressing recombinant S1P5; measure of S1P5 agonism. As for the experimental part:
CHO cells expressing recombinant S1P5 receptors were cultured in 500 cm^2 culture trays and, once confluent, rinsed and detached with cell-lifting buffer (10 mM HEPES, 154 mM NaCl, 6.85 mM EDTA, pH 7.4). Cells were then pelleted by centrifugation, resuspended, and homogenized in membrane preparation buffer (10 mM HEPES and 10 mM EDTA, pH 7.4) using a Polytron PT 1200E homogenizer (Kinematica, Luzern, Switzerland). Cellular proteins were pelleted by centrifugation at 48,000×g at 4° C. for 30 minutes. The resulting supernatant was discarded, and the pellet was re-suspended again in membrane preparation buffer, homogenized for a second time, and then centrifuged again as described above. The final cellular protein pellet was suspended in ice cold resuspension buffer (10 mM HEPES and 0.1 mM EDTA, pH 7.4), divided into aliquots, and stored at −80° C. until use.
Functional binding assays for [^35S]-GTPγS were performed in 96-well non-binding surface plates with a final volume of 200 μL. The test compounds were serially diluted in DMSO and added to assay plates using a Tecan D300E digital printer with a total volume of 0.4 μL. The control sphingosine-1-phosphate (S1P) was prepared separately by preparing a 400 μM stock solution from a 100 nmol pellet of SIP in 10 mM Na2CO3 with 2% β-cyclodextrin. The serial dilution of S1P was done using complete assay buffer (20 mM HEPES, 10 mM MgCl2, 100 mM NaCl, 1 mM EDTA, 0.1% fatty acid free bovine serum albumin (BSA), and 30 μg/mL saponin, pH 7.4) and transferred to wells already containing 0.4 μL DMSO. All the wells were then loaded to a total volume of 40 μL of complete assay buffer, except the non-specific binding (NSB) wells. For NSB wells, 40 μL/well of 50 μM GTPγS (Sigma Aldrich, cat #G8634, St. Louis, MO) was added to wells containing 0.4 μL of DMSO. The assay was started by the addition of 120 μL/well of CHO—S1P receptor membrane solution containing 40 μg/mL of membrane protein, 16.67 μM guanosine diphosphate (GDP; Sigma Aldrich, cat #G7127, St. Louis, MO), and 2.5 mg/mL of WGA PVT SPA beads in complete buffer. Assay plates were then sealed and incubated at room temperature with gentle agitation for 30 minutes. Next, 40 μL/well of 1 nM of [^35S]-GTPγS (PerkinElmer, cat #NEG030X250UC, Waltham, MA) in basic assay buffer (20 mM HEPES, 10 mM MgCl2, 100 mM NaCl, and 1 mM EDTA, pH7.4) was added to the assay plates to yield a final concentration of 200 pM and the plates were further incubated for 40 minutes at room temperature with gentle agitation. The assay was terminated by centrifugation of the plates at 1000 rpm for 3 minutes using an Eppendorf 5810R centrifuge (Eppendorf, Hamburg, Germany) and G protein bound radioactivity was quantitated using a MicroBeta2 microplate scintillation counter (PerkinElmer, Waltham, MA). As G protein bound radioactivity directly correlates to receptor activation and coupling to the G protein, this assay is a measure of S1P5 agonism.

Chain of S1P5 (Q9H228 whole entry, species assumed): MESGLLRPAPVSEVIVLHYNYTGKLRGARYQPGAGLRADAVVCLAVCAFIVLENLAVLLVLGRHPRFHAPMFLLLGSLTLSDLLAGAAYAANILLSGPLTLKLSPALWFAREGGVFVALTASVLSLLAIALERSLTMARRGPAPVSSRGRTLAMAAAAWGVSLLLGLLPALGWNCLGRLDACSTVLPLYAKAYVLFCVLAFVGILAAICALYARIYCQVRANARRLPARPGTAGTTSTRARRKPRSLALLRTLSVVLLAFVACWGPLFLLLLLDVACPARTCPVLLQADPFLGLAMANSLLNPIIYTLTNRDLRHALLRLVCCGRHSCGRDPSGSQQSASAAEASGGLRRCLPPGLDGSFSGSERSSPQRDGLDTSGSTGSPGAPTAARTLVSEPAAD

Broadly, the EC50 is the midpoint of the concentration-response curve. Take `CNC(=O)C1CCN(Cc2c(C)cc(C3CN(c4c(Cl)cccc4Cl)C3)cc2C)CC1` [Compound 1, 1-(4-(1-(2,6-dichlorophenyl)-azetidin-3-yl)-2,6-dimethyl-benzyl)-N-methylpiperidine-4-carboxamide]: the EC50 lay in the range of 1 to 10 nM.

Consider `Cc1cc(C2CN(c3c(Cl)cccc3Cl)C2)cc(C)c1CN1CCC(C(=O)N(C)C)CC1` [Compound 2, 1-(4-(1-(2,6-dichlorophenyl)-azetidin-3-yl)-2,6-dimethyl-benzyl)-N,N-dimethylpiper-idine-4-carboxamide], for which the EC50 fell in the range of 1 to 10 nM. For the compound `COCCNC(=O)C1CCN(Cc2c(C)cc(C3CN(c4c(Cl)cccc4Cl)C3)cc2C)CC1` [Compound 3, 1-(4-(1-(2,6-dichlorophenyl)-azetidin-3-yl)-2,6-dimethyl-benzyl)-N-(2-methoxyethyl)-piperidine-4-carboxamide], the EC50 was in the range of 1 to 10 nM. With `Cc1cc(C2CN(c3c(Cl)cccc3Cl)C2)cc(C)c1CN1CCC(C(=O)NC2CC2)CC1` [Compound 4, N-cyclopropyl-1-(4-(1-(2,6-dichlorophenyl)-azetidin-3-yl)-2,6-dimethylbenzyl)-piperidine-4-carboxamide], the EC50 fell in the range of 10 to 100 nM. For `Cc1cc(C2CN(c3c(Cl)cccc3Cl)C2)cc(C)c1CN1CCC(C(=O)NCC2CC2)CC1` [Compound 5, N-(cyclopropylmethyl)-1-(4-(1-(2,6-dichlorophenyl)-azetidin-3-yl)-2,6-dimethyl-benzyl)piperidine-4-carbox-amide], the EC50 is 10 to 100 nM. With `Cc1cc(C2CN(c3c(Cl)cccc3Cl)C2)cc(C)c1CN1CCC(C(=O)NC2CCC2)CC1` [Compound 6, N-cyclobutyl-1-(4-(1-(2,6-dichlorophenyl)azetidin-3-yl)-2,6-dimethylbenzyl)-piperidine-4-carboxamide] the figure was 10 to 100 nM; with `Cc1cc(C2CN(c3c(Cl)cccc3Cl)C2)cc(C)c1CN1CCC(C(=O)NC2CCC(O)CC2)CC1` (stereo not shown) [Compound 7, 1-(4-(1-(2,6-dichlorophenyl)-azetidin-3-yl)-2,6-dimethyl-benzyl)-N-(4-hydroxycyclo-hexyl)-piperidine-4-carbox-amide], 100 to 1000 nM; with `Cc1cc(C2CN(c3c(Cl)cccc3Cl)C2)cc(C)c1CN1CCC(C(=O)N2CCN(C)CC2)CC1` [Compound 8, (1-(4-(1-(2,6-dichlorophen-yl)azetidin-3-yl)-2,6-dimeth-ylbenzyl)-piperidin-4-yl)(4-methyl-piperazin-1-yl)-methanone], 100 to 1000 nM. In the case of `Cc1cc(C2CN(c3c(Cl)cccc3Cl)C2)cc(C)c1CN1CCC(C(=O)N2CCOCC2)CC1` [Compound 9, (1-(4-(1-(2,6-dichlorophen-yl)azetidin-3-yl)-2,6-dimeth-ylbenzyl)-piperidin-4-yl)-(morpholino)methanone] it was 100 to 1000 nM. Consider `Cc1cc(C2CN(c3c(Cl)cccc3Cl)C2)cc(C)c1CN1CCC(C(=O)NCC(C)C)CC1` [Compound 10, 1-(4-(1-(2,6-dichlorophenyl)-azetidin-3-yl)-2,6-dimethyl-benzyl)-N-isobutylpiperidine-4-carboxamide], for which the EC50 is 100 to 1000 nM. In the case of `Cc1cc(C2CN(c3c(Cl)cccc3Cl)C2)cc(C)c1CN1CCC(C(=O)N(C)CCO)CC1` [Compound 11, 1-(4-(1-(2,6-dichlorophenyl)-azetidin-3-yl)-2,6-dimethyl-benzyl)-N-(2-hydroxyethyl)-N-methylpiperidine-4-carbox-amide] it was 100 to 1000 nM; in that of `Cc1cc(C2CN(c3c(Cl)cccc3Cl)C2)cc(C)c1CN1CCC(C(=O)N2CCC(O)CC2)CC1` [Compound 12, (1-(4-(1-(2,6-dichlorophenyl)-azetidin-3-yl)-2,6-dimethyl-benzyl)-piperidin-4-yl)(4-hydroxy-piperidin-1-yl)-methanone], 100 to 1000 nM; in that of `Cc1cc(C2CN(c3c(Cl)cccc3Cl)C2)cc(C)c1CN1CCC(C(=O)N(C)CCN(C)C)CC1` [Compound 13, 1-(4-(1-(2,6-dichlorophenyl)-azetidin-3-yl)-2,6-dimethyl-benzyl)-N-(2-(dimethyl-amino)ethyl)-N-methylpiper-idine-4-carboxamide], 100 to 1000 nM. On to `COC1CCN(C(=O)C2CCN(Cc3c(C)cc(C4CN(c5c(Cl)cccc5Cl)C4)cc3C)CC2)CC1` [Compound 14, (1-(4-(1-(2,6-dichlorophenyl)-azetidin-3-yl)-2,6-dimethyl-benzyl)-piperidin-4-yl)(4-methoxy-piperidin-1-yl)-methanone], for which the EC50 lay in the range of 100 to 1000 nM. For the compound `Cc1cc(C2CN(c3c(Cl)cccc3Cl)C2)cc(C)c1CN1CCC(C(=O)NC2CCCC2)CC1` [Compound 15, N-cyclopentyl-1-(4-(1-(2,6-dichlorophenyl)-azetidin-3-yl)-2,6-dimethylbenzyl)-piperidine-4-carboxamide], the EC50 was in the range of 1000 to 10000 nM. With `Cc1cc(C2CN(c3c(Cl)cccc3Cl)C2)cc(C)c1CN1CCC(C(=O)N(C)C(C)C)CC1` [Compound 16, 1-(4-(1-(2,6-dichlorophenyl)-azetidin-3-yl)-2,6-dimethyl-benzyl)-N-isopropyl-N-meth-yl-piperidine-4-carboxamide] the figure was 1000 to 10000 nM; with `Cc1cc(C2CN(c3c(Cl)cccc3Cl)C2)cc(C)c1CN1CCC(C(=O)NC2CCCCC2)CC1` [Compound 17, N-cyclohexyl-1-(4-(1-(2,6-dichlorophenyl)azetidin-3-yl)-2,6-dimethylbenzyl)-piperidine-4-carboxamide], 1000 to 10000 nM; with `Cc1cc(C2CN(c3c(Cl)cccc3Cl)C2)cc(C)c1CN1CCC(C(=O)NCC2CCCCC2)CC1` [Compound 18, N-(cyclohexylmethyl)-1-(4-(1-(2,6-dichlorophenyl)-azetidin-3-yl)-2,6-dimethyl-benzyl)piperidine-4-carbox-amide], 1000 to 10000 nM. `Cc1cc(C2CN(c3c(Cl)cccc3Cl)C2)cc(C)c1CN1CCC(C(=O)NCCN2CCCC2)CC1` [Compound 19, 1-(4-(1-(2,6-dichlorophenyl)-azetidin-3-yl)-2,6-dimethyl-benzyl)-N-(2-(pyrrolidin-1-yl)ethyl)-piperidine-4-carbox-amide]: the EC50 is 1000 to 10000 nM. With `Cc1cc(C2CN(c3c(Cl)cccc3Cl)C2)cc(C)c1CN1CCC(C(=O)NC2CCC(N(C)C)CC2)CC1` (stereo not shown) [Compound 20, 1-(4-(1-(2,6-dichlorophenyl)-azetidin-3-yl)-2,6-dimethyl-benzyl)-N-(4-(dimethyl-amino)-cyclohexyl)piper-idine-4-carboxamide] the figure was 1000 to 10000 nM; with `Cc1cc(C2CN(c3c(Cl)cccc3Cl)C2)cc(C)c1CN1CCC(C(=O)NCCC(C)C)CC1` [Compound 21, 1-(4-(1-(2,6-dichlorophenyl)-azetidin-3-yl)-2,6-dimethyl-benzyl)-N-isopentyl-piper-idine-4-carboxamide], 1000 to 10000 nM. In the case of `Cc1cc(C2CN(c3c(Cl)cccc3Cl)C2)cc(C)c1CN1CCC(C(=O)N2CCC(N(C)C)CC2)CC1` [Compound 22, (1-(4-(1-(2,6-dichlorophenyl)-azetidin-3-yl)-2,6-dimethyl-benzyl)piperidin-4-yl)(4-(dimethylamino)piperidin-1-yl)methanone] it was 1000 to 10000 nM. For the compound `Cc1cc(C2CN(c3c(Cl)cccc3Cl)C2)cc(C)c1CN1CCC(C(=O)N(C)CC(C)C)CC1` [Compound 23, 1-(4-(1-(2,6-dichlorophenyl)-azetidin-3-yl)-2,6-dimethyl-benzyl)-N-isobutyl-N-meth-ylpiperidine-4-carboxamide], the EC50 was 1000 to 10000 nM.

On to `Cc1cc(C2CN(c3c(Cl)cccc3Cl)C2)cc(C)c1CN1CCC(C(=O)N2CCC(O)C2)CC1` (stereo not shown) [Compound 24, (1-(4-(1-(2,6-dichlorophenyl)-azetidin-3-yl)-2,6-dimethyl-benzyl)-piperidin-4-yl)(3-hydroxypyrrolidin-1-yl)-methanone], for which the EC50 was in the range of 1000 to 10000 nM.

For the compound `Cc1cc(C2CN(c3c(Cl)cccc3Cl)C2)cc(C)c1CN1CCC(C(=O)N(C)C2CC2)CC1` [Compound 25, N-cyclopropyl-1-(4-(1-(2,6-dichlorophenyl)-azetidin-3-yl)-2,6-dimethylbenzyl)-N-methylpiperidine-4-carbox-amide], the EC50 lay within 1000 to 10000 nM.
